Experiments:
NCI-H460 = assay: Cytotoxicity against human NCI-H460 cells after 24 hrs by MTT assay; type: functional, cell-based; settings: NCI-H460, 24 h
MCF7 = assay: Cytotoxicity against human MCF7 cells after 24 hrs by MTT assay; type: functional, cell-based; settings: MCF7, 24 h
SF-268 = assay: Cytotoxicity against human SF-268 cells after 24 hrs by MTT assay; type: functional, cell-based; settings: SF-268, 24 h
MIA PaCa-2 = assay: Cytotoxicity against human MIA PaCa2 cells after 24 hrs by MTT assay; type: functional, cell-based; settings: MIA PaCa-2, 24 h
[1] = Cytotoxicity against human WI38 cells after 24 hrs by MTT assay; type: cell-based; settings: WI-38, 24 h

| Structure (SMILES) | IC50 (NCI-H460) | IC50 (MCF7) | IC50 (SF-268) | IC50 (MIA PaCa-2) | IC50 [1] |
| --- | --- | --- | --- | --- | --- |
| C=C1C(=O)O[C@H]2[C@@H](OC(C)=O)[C@@H]1[C@H](OC(=O)C(C)(C)O)[C@H](C(=C)C=O)[C@@]2(C)[C@@H]1CO1 (relative stereo) | 970 nM | 520 nM | 640 nM | 440 nM | 760 nM |
| C=C1C(=O)O[C@H]2[C@@H](OC(C)=O)[C@@H]1[C@H](OC(=O)C(C)(O)CC)[C@H](C(=C)C=O)[C@@]2(C)[C@@H]1CO1 (relative stereo) [ZINAGRANDINOLIDE A] | 450 nM | 510 nM | 290 nM | 220 nM | 690 nM |
| C=C[C@@]1(C)[C@H]2OC(=O)C(=C)[C@H]([C@@H]2OC(C)=O)[C@H](OC(=O)C(C)(O)CC)[C@@H]1C(=C)C=O (relative stereo) [ZINAGRANDINOLIDE B] | 250 nM | 380 nM | 300 nM | 210 nM | 430 nM |
| C=C[C@@]1(C)[C@H]2OC(=O)C(=C)[C@H]([C@@H]2OC(C)=O)[C@H](OC(=O)C(C)(C)O)[C@@H]1C(=C)C=O (relative stereo) [ZINAGRANDINOLIDE C] | 270 nM | 550 nM | 440 nM | 320 nM | 640 nM |
| COc1cccc2c1C(=O)c1c(O)c3c(c(O)c1C2=O)C[C@@](O)(C(=O)CO)C[C@@H]3O[C@H]1C[C@H](N)[C@H](O)[C@H](C)O1 [DOXORUBICIN] | 10 nM | – | – | – | 300 nM |

— ChEMBL document CHEMBL1158143, “Zinagrandinolides A-C, cytotoxic delta-elemanolide-type sesquiterpene lactones from Zinnia grandiflora” (J Nat Prod, 2006)
